Reference: ChEMBL document CHEMBL1156218, “The development and validation of a novel virtual screening cascade protocol to identify potential serotonin 5-HT(7)R antagonists” (Bioorg Med Chem Lett, 2010)

Experiments:
[1] = biological target: T1, 5-hydroxytryptamine receptor 7 (Homo sapiens, UniProt P34969); test: Displacement of [3H]5CT from 5HT7 receptor
[2] = biological target: T1, 5-hydroxytryptamine receptor 7; test: Displacement of [3H]5CT from 5HT7 receptor at 0.1 uM
[3] = biological target: T2, 5-hydroxytryptamine receptor 1A (Homo sapiens, UniProt P08908); test: Binding affinity at 5HT1A receptor
T2 sequence (P08908 whole entry): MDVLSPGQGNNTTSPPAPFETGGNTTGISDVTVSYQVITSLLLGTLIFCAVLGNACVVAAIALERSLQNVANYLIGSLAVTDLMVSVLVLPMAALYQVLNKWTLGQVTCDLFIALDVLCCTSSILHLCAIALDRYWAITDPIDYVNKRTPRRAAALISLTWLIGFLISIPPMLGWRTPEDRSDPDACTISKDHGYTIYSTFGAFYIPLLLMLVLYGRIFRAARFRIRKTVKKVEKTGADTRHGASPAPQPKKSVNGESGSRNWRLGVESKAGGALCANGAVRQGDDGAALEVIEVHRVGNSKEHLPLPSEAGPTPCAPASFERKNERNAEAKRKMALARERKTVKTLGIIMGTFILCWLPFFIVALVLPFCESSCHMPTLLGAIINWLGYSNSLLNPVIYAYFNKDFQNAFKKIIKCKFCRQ

[4] = biological target: T1, 5-hydroxytryptamine receptor 7; test: Displacement of [3H]5CT from 5HT7 receptor at 1 uM

T1 sequence (P34969 whole entry): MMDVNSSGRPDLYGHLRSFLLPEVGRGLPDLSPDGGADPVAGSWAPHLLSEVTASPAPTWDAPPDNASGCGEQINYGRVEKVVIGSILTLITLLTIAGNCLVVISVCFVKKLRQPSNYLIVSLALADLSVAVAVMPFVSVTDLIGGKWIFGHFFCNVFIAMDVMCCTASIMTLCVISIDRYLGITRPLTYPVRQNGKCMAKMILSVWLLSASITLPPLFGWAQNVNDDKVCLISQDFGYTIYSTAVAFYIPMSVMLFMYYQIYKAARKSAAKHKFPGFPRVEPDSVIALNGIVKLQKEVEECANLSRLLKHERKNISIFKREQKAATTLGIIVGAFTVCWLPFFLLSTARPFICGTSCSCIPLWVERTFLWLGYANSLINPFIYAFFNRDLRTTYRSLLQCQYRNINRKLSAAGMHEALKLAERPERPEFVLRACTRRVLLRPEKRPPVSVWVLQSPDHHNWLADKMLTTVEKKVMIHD

Row | Activity [2] [%] | Ki ([1]; read-out: Ki) [nM] | Ki [3] [nM] | Activity [4] [%] | SMILES | Ki ([1]; read-out: pKi (converted)) [nM]
1 |  |  |  |  | O=C1Nc2cccc3c2[C@]1(CCCCN1CC=C(c2ccccc2)CC1)CCC3 | 2.14
2 | 23 | 265 | 36 | 67 | OC(CNCC1COc2ccccc2O1)COCc1ccccc1Cl (centres undefined) | 
3 | 29 | 197 | 8 | 75 | OC(CNCC1COc2ccccc2O1)COc1ccccc1F (centres undefined) | 
